Reference: ChEMBL document CHEMBL1201862, “PubChem BioAssay data set” (2004)
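Protocol summary: plate cells (96-well), add compound at 5 concentrations, incubate 48 h, interpolate endpoints linearly. GI50 is the concentration that inhibits growth by half.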 The source made the active and inactive calls. Cut-off read from the data, not from the text of the source: active = GI50 up to about 1.1 µM and inactive = higher.

Key:
Test in all cases: DTP human tumour cell line panel, 48 h
UO-31 = test system: UO-31
SK-OV-3 = test system: SK-OV-3
SK-MEL-5 = test system: SK-MEL-5
HL-60 = test system: HL-60
CAKI-1 = test system: CAKI-1
NCI-H23 = test system: NCI-H23
NCI-H460 = test system: NCI-H460
HCT-15 = test system: HCT-15
NCI-H226 = test system: NCI-H226
Malme-3M = test system: Malme-3M
KM-20L2 = test system: KM-20L2
NCI-H522 = test system: NCI-H522
OVCAR-5 = test system: OVCAR-5
SW-620 = test system: SW-620
SK-MEL-28 = test system: SK-MEL-28
RXF 393 = test system: RXF 393
COLO 205 = test system: COLO 205
BT-549 = test system: BT-549
DU-145 = test system: DU-145
HOP-92 = test system: HOP-92

## N#C/C(=C/c1cccc2ccccc12)C(=O)c1ccccc1
UO-31
  GI50: 18.4 µM (inactive)
SK-OV-3
  GI50: > 100 µM (inactive)
SK-MEL-5
  GI50: > 10 µM (inactive)
HL-60
  GI50: 19.4 µM (inactive)
CAKI-1
  GI50: 23.9 µM (inactive)
NCI-H23
  GI50: 17.8 µM (inactive)
NCI-H460
  GI50: 27.5 µM (inactive)
HCT-15
  GI50: 19 µM
NCI-H226
  GI50: 17.7 µM (inactive)
Malme-3M
  GI50: 21.5 µM (inactive)
KM-20L2
  GI50: 19 µM (inactive)
NCI-H522
  GI50: 21.5 µM (inactive)
OVCAR-5
  GI50: 23.6 µM (inactive)
SW-620
  GI50: 16.8 µM (inactive)
SK-MEL-28
  GI50: 13.9 µM (inactive)

## O=C1c2ccccc2C(=O)N1C/C=N/NS(=O)(=O)c1cccc([N+](=O)[O-])c1
UO-31
  GI50: > 100 µM (inactive)
SK-MEL-5
  GI50: > 100 µM (inactive)
RXF 393
  GI50: > 100 µM (inactive)
HL-60
  GI50: > 100 µM (inactive)
COLO 205
  GI50: > 100 µM (inactive)
CAKI-1
  GI50: > 100 µM (inactive)
NCI-H23
  GI50: > 100 µM (inactive)
NCI-H460
  GI50: > 100 µM (inactive)
HCT-15
  GI50: > 100 µM
Malme-3M
  GI50: > 100 µM (inactive)
KM-20L2
  GI50: > 100 µM (inactive)
NCI-H522
  GI50: > 100 µM (inactive)
SW-620
  GI50: > 100 µM (inactive)

## C=CN1C(=O)[C@H](Oc2ccccc2)[C@@H]1c1ccccc1
UO-31
  GI50: 36.3 µM (inactive)
SK-OV-3
  GI50: 32.1 µM (inactive)
SK-MEL-5
  GI50: 31.5 µM (inactive)
RXF 393
  GI50: 17.8 µM (inactive)
NCI-H23
  GI50: 21.7 µM (inactive)
NCI-H460
  GI50: 30.3 µM (inactive)
HCT-15
  GI50: 41.1 µM
NCI-H226
  GI50: 44.4 µM (inactive)
Malme-3M
  GI50: 63.2 µM (inactive)
KM-20L2
  GI50: 31.7 µM (inactive)
NCI-H522
  GI50: 32.6 µM (inactive)
OVCAR-5
  GI50: > 100 µM (inactive)
SW-620
  GI50: 33.3 µM (inactive)
SK-MEL-28
  GI50: 36.4 µM (inactive)

## CCOC(=O)/C=C1\C[C@H](NC(=O)OCc2ccccc2)C(=O)N1CC(=O)OCC
UO-31
  GI50: > 100 µM (inactive)
SK-OV-3
  GI50: > 100 µM (inactive)
SK-MEL-5
  GI50: > 100 µM (inactive)
RXF 393
  GI50: 61.2 µM (inactive)
BT-549
  GI50: > 100 µM (inactive)
HL-60
  GI50: > 100 µM (inactive)
COLO 205
  GI50: > 100 µM (inactive)
CAKI-1
  GI50: > 100 µM (inactive)
NCI-H23
  GI50: > 100 µM (inactive)
NCI-H460
  GI50: > 100 µM (inactive)
HCT-15
  GI50: > 100 µM
NCI-H226
  GI50: > 100 µM (inactive)
DU-145
  GI50: > 100 µM (inactive)
Malme-3M
  GI50: > 100 µM (inactive)
NCI-H522
  GI50: > 100 µM (inactive)
OVCAR-5
  GI50: > 100 µM (inactive)
SW-620
  GI50: > 100 µM (inactive)
SK-MEL-28
  GI50: > 100 µM (inactive)
HOP-92
  GI50: > 100 µM (inactive)

## O=[N+]([O-])/C(Cl)=C(\NCCO)C(Cl)=C(Cl)Cl
UO-31
  GI50: > 74.5 µM (inactive)
SK-OV-3
  GI50: > 100 µM (inactive)
SK-MEL-5
  GI50: > 96.4 µM (inactive)
RXF 393
  GI50: 56.1 µM (inactive)
BT-549
  GI50: > 79.8 µM (inactive)
HL-60
  GI50: 4.35 µM (inactive)
COLO 205
  GI50: 27.5 µM (inactive)
CAKI-1
  GI50: > 86.7 µM (inactive)
NCI-H23
  GI50: 72.1 µM (inactive)
NCI-H460
  GI50: > 100 µM (inactive)
HCT-15
  GI50: 30.8 µM
NCI-H226
  GI50: > 100 µM (inactive)
DU-145
  GI50: > 100 µM (inactive)
Malme-3M
  GI50: 32.5 µM (inactive)
NCI-H522
  GI50: 21.7 µM (inactive)
OVCAR-5
  GI50: > 100 µM (inactive)
SW-620
  GI50: 41.3 µM (inactive)
SK-MEL-28
  GI50: > 85.7 µM (inactive)
HOP-92
  GI50: > 84.5 µM (inactive)

## Cc1cccc(NC(=S)N/N=C(/c2ccccc2)c2ccccn2)c1
UO-31
  GI50: 0.385 µM (active)
SK-OV-3
  GI50: 0.038 µM (active)
SK-MEL-5
  GI50: 0.108 µM (active)
RXF 393
  GI50: 0.667 µM (active)
BT-549
  GI50: 2.5 µM (inactive)
HL-60
  GI50: < 0.0137 µM (active)
COLO 205
  GI50: < 0.0163 µM (active)
CAKI-1
  GI50: 0.249 µM (active)
NCI-H23
  GI50: < 0.0282 µM (active)
NCI-H460
  GI50: 0.159 µM (active)
HCT-15
  GI50: 0.0255 µM
NCI-H226
  GI50: 0.207 µM (active)
DU-145
  GI50: 0.942 µM (active)
Malme-3M
  GI50: 0.174 µM (active)
NCI-H522
  GI50: 1.09 µM (active)
OVCAR-5
  GI50: 0.0266 µM (active)
SW-620
  GI50: < 0.019 µM (active)
SK-MEL-28
  GI50: 1.89 µM (inactive)
HOP-92
  GI50: 0.484 µM (active)
